From patent US20170128720A1, “METHODS AND DEVICES FOR MODULATING GENE EXPRESSION AND ENZYME ACTIVITY” (VOMARIS INNOVATIONS, INC, priority 2014, published 2017)
Where two headings read alike, the source gives them in different places.

Experiments:
HUVEC cells [1] = assay: EF-induced reorientation of endothelial cells, drug inhibition (orientation index Oi); format: cell-based
Description: HUVEC cells were seeded in a trough formed by two parallel (1 cm apart) strips of glass coverslip (No. 1, length of 22 mm) fixed to the base of the dish with silicone grease. Scratch lines were made perpendicular to the long axis of the chamber with a fine sterile needle and used as reference marks for directed cell migration. Cells were incubated for 24-48 hours (37° C., 5% CO2) before a roof coverslip was applied and sealed with silicone grease. The final dimensions of the chamber, through which current was passed, were 22×10×0.2 mm. Agar-salt bridges not less than 15 cm long were used to connect silver/silver-chloride electrodes in beakers of Steinberg's solution (58 mM NaCl, 0.67 mM KCl, 0.44 mM Ca(NO3)2, 1.3 mM MgSO4, 4.6 mM Trizma base, pH 7.8-8.0), to pools of excess culture medium at either side of the chamber. Field strengths were measured directly at the beginning of, the end of and during each experiment. No fluctuations in field strength were observed. […] The same concentration of drug was present during EF (electric field) exposure in a CO2 incubator.
A series of images was taken with an image analyser immediately before EF exposure and at 4, 8 and 24 hours of EF exposure. Cell orientation was quantified as an orientation index (Oi), which is defined as Oi=cos 2(α), where α is the angle formed by the long axis of a cell with a line drawn perpendicular to the field lines. A cell with its long axis parallel to the vector of the EF will have an Oi of −1, and a cell with its long axis exactly perpendicular to the EF vector will have an Oi of +1. A randomly oriented population of cells will have an average Oi {defined as [Σn cos 2(α)]÷n} of 0. The significance of this two-dimensional orientation distribution against randomness was calculated using Rayleigh's distribution. A long:short axis ratio was calculated for assessment of elongation.

HUVEC cells [2] = assay: EF-induced elongation of endothelial cells, drug inhibition (long:short axis ratio); format: cell-based; conditions: for long:short axis ratio / long axis in EF-treated cells: drug 50 μM
Description: HUVEC cells were seeded in a trough formed by two parallel (1 cm apart) strips of glass coverslip (No. 1, length of 22 mm) fixed to the base of the dish with silicone grease. Scratch lines were made perpendicular to the long axis of the chamber with a fine sterile needle and used as reference marks for directed cell migration. Cells were incubated for 24-48 hours (37° C., 5% CO2) before a roof coverslip was applied and sealed with silicone grease. The final dimensions of the chamber, through which current was passed, were 22×10×0.2 mm. Agar-salt bridges not less than 15 cm long were used to connect silver/silver-chloride electrodes in beakers of Steinberg's solution (58 mM NaCl, 0.67 mM KCl, 0.44 mM Ca(NO3)2, 1.3 mM MgSO4, 4.6 mM Trizma base, pH 7.8-8.0), to pools of excess culture medium at either side of the chamber. Field strengths were measured directly at the beginning of, the end of and during each experiment. No fluctuations in field strength were observed. […] (50 μM), the Rho kinase inhibitor Y27632 (50 μM), both Akt and Rho kinase inhibitors (10 μM each) or latrunculin (50 nM) for 1 hour before EF stimulation. The same concentration of drug was present during EF (electric field) exposure in a CO2 incubator.
A series of images was taken with an image analyser immediately before EF exposure and at 4, 8 and 24 hours of EF exposure. Cell orientation was quantified as an orientation index (Oi), which is defined as Oi=cos 2(α), where α is the angle formed by the long axis of a cell with a line drawn perpendicular to the field lines. A cell with its long axis parallel to the vector of the EF will have an Oi of −1, and a cell with its long axis exactly perpendicular to the EF vector will have an Oi of +1. […] The significance of this two-dimensional orientation distribution against randomness was calculated using Rayleigh's distribution. A long:short axis ratio was calculated for assessment of elongation.
HUVEC cells elongated dramatically in an EF. […] We quantified the elongation of the cells using a long:short axis ratio. […]

[3] = drug 50 μM, 1 hour before and during EF

With `C[C@@H](N)[C@H]1CC[C@H](C(=O)Nc2ccncc2)CC1` [Y27632] as the compound, how does the “orientation index Oi” value (HUVEC cells [1]; 10 μM) read?
The value was 0.55±0.05.

What about the “orientation response in EF” value (HUVEC cells [1]; 10 μM, 20 μM and 50 μM) of the same compound?
Its value is “decreased the orientation response significantly”.

What about the “orientation index Oi” value (HUVEC cells [1]; 20 μM) of the same compound?
The value was 0.45±0.05.

And the “orientation index Oi” value (HUVEC cells [1]; 50 μM)?
Its value is 0.24±0.05.

And the “long:short axis ratio / long axis in EF-treated cells” value (HUVEC cells [2])?
Its value is “significantly decreased”.

What does the source list for `N#CC(=C(/N)Sc1ccccc1N)/C(C#N)=C(\N)Sc1ccccc1N` [U0126]?
orientation index Oi (HUVEC cells [1]): 0.33±0.03; reorientation / orientation response of cells in an EF (HUVEC cells [1]): decreased the orientation to a similar extent

For `COc1cc2ncnc(Nc3ccc(Cl)cc3F)c2cc1OC` [VEGFR inhibitor, 4-[(4′-chloro-2′-fluoro)phenylamino]-6,7-dimethoxyquinazoline], which “reorientation / orientation response of cells in an EF” value (HUVEC cells [1]; [3]) is on record?
Its value is “completely abolished”.

What does the source list for `C/C1=C/C(=O)O[C@@H]2C[C@@H](CC[C@H](C)/C=C\C=C\CC1)O[C@@](O)([C@@H]1CSC(=O)N1)C2` [Latrunculin A]?
orientation response in EF (HUVEC cells [1]; latrunculin 50 nM): suppressed the orientation response significantly; EF-induced elongation response (HUVEC cells [2]; latrunculin 50 nM): completely abolished

Which “reorientation / orientation response of cells in an EF” value (HUVEC cells [1]; [3]) does the source give for “1-L-6-hydroxymethyl-chiro-inositol 2-[(R)-2-O-methyl-3-O-octadecylcarbonate] [Akt inhibitor]” here?
The value was “significantly decreased”.

And the “long:short axis ratio / long axis in EF-treated cells” value (HUVEC cells [2])?
The value was “significantly decreased”.
